In patent US9359589B2, “Use of at least one chelating agent introduced into the culture medium of magnetotactic bacteria in order to stimulate the growth thereof” (UNIVERSITE PIERRE ET MARIE CURIE (PARIS 6), priority 2011, dated 2016):

What was measured:
Assay type in all cases: cell-based
[1] = tested on: Magnetotactic bacteria of the Magnetospirillum magneticum species, strain AMB-1; assay: Magnetosome production after 7 days of culture (iron oxide concentration of extracted magnetosome chains, absorption at 480 nm)
Method: (§1) Magnetotactic bacteria of the Magnetospirillum magneticum species, strain AMB-1, available from ATCC under the reference ATCC No. 700274, were used.
(§2) In order to prepare the culture medium containing the various iron-chelating agents, said agents were introduced at various concentrations into the culture medium described above (section 1.2).
The cells were harvested during the stationary phase.
The cells are harvested during the stationary phase by centrifugation at 4000 g for 20 minutes. The supernatant is removed and the cells are resuspended in 3 ml of deionized water.
To extract the magnetosome chains, 1 ml of cell suspension obtained as described above is again centrifuged and then resuspended in a 10 mM Tris-HCl buffer at pH 7.4, and then the cell suspension is subjected to a sonication step for 120 minutes at a power of 30 W, in order to lyze the cells and to release the magnetosome chains. Sonication periods of 60 and 180 minutes can also be used. For a sonication period of less than 60 minutes, the bacteria are not all lyzed. For a sonication period of greater than 180 minutes, the beginnings of aggregation are observed owing to the presence of individual magnetosomes which are aggregated.
After sonication, the magnetosome chain suspension is separated by placing a powerful neodynium magnet (0.1-1 T) in proximity to the tube, and the magnetic material is then recovered in the form of a pellet.
The maghemite concentration of a suspension of magnetosome chains extracted from magnetotactic bacteria was measured using the measurement of the absorption at 480 nm of this suspension. The method of calibration between the value of the absorption and the amount of maghemite is described elsewhere (PCT/EP2010/067765). These measurements were carried out in order to determine the amount of magnetosome chains produced by the magnetotactic bacteria after a given growth time. The amounts of magnetosome chains produced in the absence and in the presence of the chelating agents were then compared.
(§3) In this example, the magnetotactic bacteria were cultured in the presence of various chelating agents and harvested after 7 days. The absorption and the iron oxide concentration of the magnetosome chains extracted from the bacteria were then measured.

[2] = tested on: Magnetotactic bacteria of the Magnetospirillum magneticum species, strain AMB-1; assay: Growth of magnetotactic bacteria after 7 days of culture in 1 liter of medium with chelating agent (absorption at 565 nm); conditions: for absorption measured at 565 nm of bacterial suspension compared with bacteria cultured in the absence of chelating agent: 1 liter
Method: as §1
The cells were placed in culture under microanaerobic conditions, i.e. in a culture medium which has not been degassed but which is closed and has no contact with oxygen. The bacteria were cultured at laboratory temperature (approximately 25° C.) in a liquid culture in a slighly modified MSGM medium (medium ATCC 1653), the makeup of which is described hereinafter.
For a volume of one liter, the culture medium contains 0.68 g of monobasic potassium phosphate, 0.85 g of sodium succinate, 0.57 g of sodium tartrate, 0.083 g of sodium acetate, 225 μl of resazurin at 0.2%, 0.17 g of sodium nitrate, 0.04 g of L-ascorbic acid, 2 ml of a 10 mM iron quinate solution, 10 ml of a Woolf vitamin solution and 5 ml of a Woolf mineral solution.
as §2, §3

[3] = tested on: Magnetospirillum magneticum; assay: Magnetic moment of suspensions of magnetotactic bacteria (SQUID, 500 Oe or 1000 Oe) on D7, D8, D9
Method: The magnetic moment of various suspensions of magnetotactic bacteria deposited on blotting paper, under the application of a magnetic field of 500 Oe or of 1000 Oe, was also measured. The magnetic moment was measured for 10 ml of suspension of magnetotactic bacteria harvested at various days of growth, centrifuged, and then resuspended in 100 μl of distilled water. These 100 μl containing the magnetotactic bacteria are then redeposited on nonmagnetic absorbent paper which itself is inserted into a capsule that is placed in the magnetometer in order to carry out the magnetic measurements. […]
Cultures of Magnetospirillum magneticum were prepared as described in example 1. […] The cultures in suspension were placed at ambient temperature (approximately 25° C.) and the growth of the bacteria over time was monitored by measuring O.D. at the wavelength of 565 nanometers.
The bacteria were cultured for 12 days in a tube and the absorbance over the whole of the spectrum ranging from 400 to 700 nanometers was measured, respectively, (i) on the second day (D2) after inoculation, (ii) on the third day (D3) after inoculation, (iii) on the fourth day (D4) after inoculation, (iv) on the seventh day (D7) after inoculation, (v) on the eighth day (D8) after inoculation and (vi) on the ninth day (D9) after inoculation. […]

[4] = tested on: Magnetospirillum magneticum; assay: Growth over time of magnetotactic bacteria in 10 ml tubes with chelating agent (absorbance, O.D. at 565 nm, D2-D9); conditions: for effect on cell growth at high concentration: 400 μM; for effect on the growth of the magnetotactic bacteria (absorbance compared with cultures without the agent): 0.4-400 μM, D2 to D9, 10 ml tubes; for growth curves (fitted absorption, first 7 days) relative to bacteria cultured in the absence of the agent: all concentrations except 400 μM; for period of culture during which the effects are greatest: exponential growth phase; for multiplication of the bacteria during the first 4 days: first 4 days of growth
Method: Cultures of Magnetospirillum magneticum were prepared as described in example 1. The bacteria were cultured in 10 milliliter tubes. A volume of 100 microliters of culture medium was inoculated, at time “D0” (Day 0), with 0.1×10^6 bacterial cells. The cultures in suspension were placed at ambient temperature (approximately 25° C.) and the growth of the bacteria over time was monitored by measuring O.D. at the wavelength of 565 nanometers.
The following series of culture samples were prepared: • samples of control culture, comprising the bacterial cells in the culture medium free of chelating agent; • a series of culture samples containing the chelating agent rhodamine B, at increasing concentrations of 0.4 μM, 4 μM, 40 μm and 400 μM; • a series of culture samples containing the chelating agent ascorbic acid, at increasing concentrations of 0.4 μM, 4 μM, 40 μM and 400 μM; • a series of culture samples containing the chelating agent erythrosine, at increasing concentrations of 0.4 μM, 40 μM and 400 μM; • a series of culture samples containing the chelating agent folic acid, at increasing concentrations of 0.4 μM, 4 μM, 40 μM and 400 μM;
The bacteria were cultured for 12 days in a tube and the absorbance over the whole of the spectrum ranging from 400 to 700 nanometers was measured, respectively, (i) on the second day (D2) after inoculation, (ii) on the third day (D3) after inoculation, (iii) on the fourth day (D4) after inoculation, (iv) on the seventh day (D7) after inoculation, (v) on the eighth day (D8) after inoculation and (vi) on the ninth day (D9) after inoculation. The magnetic moments of various suspensions of magnetotactic bacteria deposited on blotting paper were measured on days D7, D8 and D9.

Molecule	magnetosome production (iron oxide concentration) compared with the control bacteria ([1]; chelating agent 0.4 μM)	absorption measured at 565 nm of bacterial suspension compared with bacteria cultured in the absence of chelating agent ([2]; chelating agent 4 μM)	absorption measured at 565 nm of bacterial suspension compared with bacteria cultured in the absence of chelating agent ([2]; chelating agent 40 μM)	magnetosome production (iron oxide concentration) compared with the control bacteria ([1]; chelating agent 4 μM)	magnetosome production (iron oxide concentration) compared with the control bacteria ([1]; chelating agent 40 μM)	absorption measured at 565 nm of bacterial suspension compared with bacteria cultured in the absence of chelating agent ([2]; chelating agent 0.4 μM)	also measured
O=S(=O)(O)CCCN1CCOCC1 [3-(N-morpholino)propanesulfonic acid]	increased	greater	greater	–	–	–	–
O=S(=O)(O)CCCNC1CCCCC1 [3-[cyclohexylamino]-1-propanesulfonic acid]	increased	greater	greater	increased	increased	greater	–
O=C(O)CN(CCN(CC(=O)O)CC(=O)O)CC(=O)O [EDTA, ethylenediaminetetraacetic acid]	increased	greater	greater	increased	–	greater	–
NCCCC(O)(P(=O)(O)O)P(=O)(O)O [alendronate, reference compound]	increased	–	–	increased	increased	–	–
Nc1ccccc1C(=O)O [anthranilic acid]	increased	–	–	–	–	greater	–
O=C1O[C@H]([C@@H](O)CO)C(O)=C1O [ascorbic acid]	–	–	–	–	–	–	concentration range of stimulated magnetosome production compared with rhodamine B [3]: wider concentration range; effect on bacterial growth compared with rhodamine B [4]: similar; effect on cell growth at high concentration [4]: rather unfavorable; effect on the growth of the magnetotactic bacteria (absorbance compared with cultures without the agent) [4]: stimulates the growth; concentration giving the most pronounced effect on growth ([4]; after 4 days of culture): 0.4 µM; growth curves (fitted absorption, first 7 days) relative to bacteria cultured in the absence of the agent [4]: above; period of culture during which the effects are greatest [4]: first four days
O=C(O)CN(CC(=O)O)Cc1cc2c(cc1O)Oc1cc(O)c(CN(CC(=O)O)CC(=O)O)cc1C21OC(=O)c2ccccc21 [calcein]	–	greater	greater	increased	increased	–	–
O=C(O)CC(O)(CC(=O)O)C(=O)O [citric acid]	–	greater	greater	increased	increased	–	–
O=C1OC2(c3ccccc31)c1cc(I)c(O)c(I)c1Oc1c2cc(I)c(O)c1I [erythrosine]	–	–	–	–	–	–	absorption compared with control bacteria on day D4 ([4]; 0.4 μM): greater; absorption compared with control bacteria on day D4 ([4]; 4 μM): greater; effect on the growth of the magnetotactic bacteria (absorbance compared with cultures without the agent) [4]: stimulates the growth of the magnetotactic bacteria less than rhodamine B or ascorbic acid; absorption compared with control bacteria ([4]; the other days of culture and the other concentrations): either similar to or lower
Nc1nc2ncc(CNc3ccc(C(=O)N[C@@H](CCC(=O)O)C(=O)O)cc3)nc2c(=O)[nH]1 [folic acid]	–	–	–	–	–	–	multiplication of the bacteria during the first 4 days ([4]; 0.4 μM): multiply in greater number; growth of the bacteria during the first two days ([4]; 4 μM, first two days of growth): grow more rapidly; multiplication of the bacteria during the first 4 days ([4]; 40 μM): multiply in greater number; effect on the growth of the magnetotactic bacteria (absorbance compared with cultures without the agent) [4]: stimulates the growth
NCCCCCC(O)(P(=O)(O)O)P(=O)(O)O [neridronate, reference compound]	–	–	greater	–	–	–	–
NC(=O)c1cccnc1 [nicotinamide]	–	–	greater	–	–	–	absorption relative to that of the control bacteria ([2]; chelating agent 40 μM): 1.5-2 times
CCN(CC)c1ccc2c(-c3ccccc3C(=O)O)c3ccc(=[N+](CC)CC)cc-3oc2c1 [rhodamine B]	increased	greater	greater	increased	increased	greater	effect on cell growth at high concentration [4]: rather unfavorable; effect on the growth of the magnetotactic bacteria (absorbance compared with cultures without the agent) [4]: stimulates the growth; growth curves (fitted absorption, first 7 days) relative to bacteria cultured in the absence of the agent [4]: above; period of culture during which the effects are greatest [4]: first six days
dextran	–	–	greater	–	increased	–	–
hemoglobin	increased	greater	greater	increased	increased	greater	factor of increase of iron oxide production ([1]; 0.4 μM in the culture medium): 7-8; factor of increase of iron oxide production ([1]; 4 μM in the culture medium): 7-8
